Experiments:
[1] = Effect on tissue-toxic hypoxia (survival time after KCN i.p.), life-prolonging rate (1); format: in vivo, male mice (dd-strain); details: Mus musculus, po, 100 mg/kg oral, 1 hour before KCN 10 mg/kg i.p.; untreated group 140 seconds; read-out: Life-prolonging rate (1): increase percent of survival time
[2] = Effect on hypotonic hypoxia (survival time in nitrogen gas containing 1.5 % oxygen), life-prolonging rate (2); format: in vivo, male mice (dd-strain); details: Mus musculus, po, 100 mg/kg oral, 1 hour before 1.5 % oxygen in nitrogen; untreated group 8 minutes; read-out: Life-prolonging rate (2): increase percent of survival time
Procedure: b. Effect on hyptonic hypoxia
To male mice (dd-strain) weighting 15 to 22 g were administered orally the present compounds in the dosage of 100 mg/kg, and after one hour, the mice were taken to a closed room, air in which was substituted with nitrogen gas containing 1.5 % oxygen by ventilating the nitrogen gas for 2 minutes. As sending a mixed gas into the room, the time for death was measured. The increase percent of survival time to the average survival time (8 minutes) of the group, to which the present compounds were not administered, is shown in Table II as life-prolonging rate (2).

Compound: CC(O)CNC(=S)Nc1cccnc1 (stereo not shown)
- ILS at 100 mg/kg [1]: 75%
- ILS at 100 mg/kg [2]: 60%

Compound: CCN(CC)CCNC(=S)Nc1cccnc1
- ILS at 100 mg/kg [1]: 89%
- ILS at 100 mg/kg [2]: 40%

Compound: CN(C)CCNC(=S)Nc1cccnc1
- ILS at 100 mg/kg [1]: 61%
- ILS at 100 mg/kg [2]: 46%

Compound: CCN(CC)CCNC(=S)Nc1ccccn1
- ILS at 100 mg/kg [1]: 20%
- ILS at 100 mg/kg [2]: 16%

Compound: CN(Cc1ccccc1)NC(=S)Nc1ccncc1
- ILS at 100 mg/kg [1]: 156%
- ILS at 100 mg/kg [2]: 58%

Compound: OCCNC(=S)Nc1ccncc1
- ILS at 100 mg/kg [1]: 242%
- ILS at 100 mg/kg [2]: 158%

Compound: S=C(Nc1cccnc1)NN1CCN(Cc2ccccc2)CC1
- ILS at 100 mg/kg [1]: 124%
- ILS at 100 mg/kg [2]: 80%

Compound: S=C(NCCSCc1ccccc1)Nc1cccnc1
- ILS at 100 mg/kg [1]: 64%
- ILS at 100 mg/kg [2]: 55%

Compound: O=C(O)CCCNC(=S)Nc1ccccn1
- ILS at 100 mg/kg [1]: 72%
- ILS at 100 mg/kg [2]: 53%

Compound: S=C(NCCSCc1ccccc1)Nc1ccccn1
- ILS at 100 mg/kg [1]: 86%
- ILS at 100 mg/kg [2]: 65%

Compound: OCC(CO)(CO)NC(=S)Nc1cccnc1
- ILS at 100 mg/kg [1]: 61%
- ILS at 100 mg/kg [2]: 59%

Compound: CN(C)NC(=S)Nc1cccnc1
- ILS at 100 mg/kg [1]: 81%
- ILS at 100 mg/kg [2]: 63%

Compound: CCN(CC)CCCNC(=S)Nc1cccnc1
- ILS at 100 mg/kg [1]: 28%
- ILS at 100 mg/kg [2]: 11%

Compound: CC(C)(CO)NC(=S)Nc1cccnc1
- ILS at 100 mg/kg [1]: 67%
- ILS at 100 mg/kg [2]: 50%

Compound: S=C(NN=Cc1ccccn1)Nc1cccnc1
- ILS at 100 mg/kg [1]: 92%
- ILS at 100 mg/kg [2]: 81%

Compound: COCCCNC(=S)Nc1cccnc1
- ILS at 100 mg/kg [1]: 35%
- ILS at 100 mg/kg [2]: 25%

Compound: S=C(NCCSSCCNC(=S)Nc1cccnc1)Nc1cccnc1
- ILS at 100 mg/kg [1]: 30%
- ILS at 100 mg/kg [2]: 5%

Compound: S=C(NN=Cc1cccnc1)Nc1cccnc1
- ILS at 100 mg/kg [1]: 135%
- ILS at 100 mg/kg [2]: 114%

Compound: O=C(O)CCCNC(=S)Nc1cccnc1
- ILS at 100 mg/kg [1]: 127%
- ILS at 100 mg/kg [2]: 78%

Compound: OCCCNC(=S)Nc1cccnc1
- ILS at 100 mg/kg [1]: 115%
- ILS at 100 mg/kg [2]: 100%

Compound: CN(C)CCCNC(=S)Nc1ccncc1
- ILS at 100 mg/kg [1]: 37%
- ILS at 100 mg/kg [2]: 21%

Compound: S=C(NNc1ccccc1)Nc1cccnc1
- ILS at 100 mg/kg [1]: 125%
- ILS at 100 mg/kg [2]: 108%

Compound: CN(C)CCCNC(=S)Nc1cccnc1
- ILS at 100 mg/kg [1]: 35%
- ILS at 100 mg/kg [2]: 10%

Reference: US3992391A, “1,3-Disubstituted thiourea compounds and preparation thereof” (priority 1972, dated 1976)
